Results as given in US12629415B2, “Vaccine adjuvants” (THE PROVOST, FELLOWS, FOUNDATION SCHOLARS, AND THE OTHER …, priority 2018, dated 2026).
“Also recorded” adds a separate entry of the source.

Key:
bovine PBMCs = test: Bovine IL-1β ELISA on stimulated PBMCs; type: cell-based, cattle; settings: for IL-1β secretion by bovine PBMCs in the absence of LPS priming: polydA:dT 5, 2 or 1 μg/ml or alum 50 μg/ml
Experimental: Bovine peripheral blood mononuclear cells were isolated from whole blood samples collected in 9m1 vacutainers containing Heparin anticoagulant. PBMCs were spun and separated using leucosep tubes (Cruinn) and a density gradient histopaque 1077 (Sigma-Aldrich) at a speed of 1200 g for 20 minutes. Red blood cell contamination was eliminated using sterile 0.25% sodium chloride (Baxter) as a lysis buffer. The cells were subsequently washed twice in PBS at a speed of 600 g for 10 minutes to remove impurities.
Cells were counted using a haemocytometer, microscope and trypan blue (Sigma Aldrich) and seeded at appropriate densities in tissue culture plates (Cruinn) containing media. The cells were incubated at 37° C. at 5% CO2 treated within hours of plating to avoid unwanted cell death.
[…] This concentration was selected after testing effects of a range of different LPS concentrations ranging from 1 pg/ml-1 μg/ml. […] Similar to LPS, adjuvant concentrations were selected after testing multiple different doses. After stimulation, the cells were cultured for an additional 24 hours. Supernatants were harvested and stored at −20° C. for further analysis.
Capture antibodies (50 μl/well), diluted in the appropriate buffers, were dispensed into the wells of high binding plates (Greiner Bio-One) and incubated overnight at room temperature or 4° C. For analysis of IL-17, the ELISA plates were pre-coated with capture antibody by the manufacturing before delivery. The wells were washed with PBS/Tween 3 times and the plates were then incubated with 150 μl of blocking buffer for 1 hour at room temperature. The plates were washed again before supernatant (neat or diluted) and recombinant standards were added for 1 hour at room temperature. Following this, the plates were washed and 50 μl of detection antibody was added to the wells for a period of 1 or 2 hours at room temperature. After washing, 50 μl diluted streptavidin-HRP was added to the plate for between 30 minutes and 1 hour. After the final wash, 50 μl of 3,3′-, 5,5′-Tetramethylbenzidine (TMB) substrate was added and the plates were incubated in the dark. The reaction was stopped by addition of 1M sulphuric acid and the absorbance readings were measured at 450 nm using a microtitre plate reader. The cytokine concentrations were calculated using a linear regression standard curve from recombinant cytokines of known concentration. Skanit™ software was used to estimate values.

Human PBMCs = test: IL-1β ELISA on stimulated human PBMCs; type: cell-based; settings: with or without LPS 100 pg/ml priming; 24 hours
Experimental: Supernatants were collected after 24 hours and IL-1β was detected by ELISA. Human PBMCs were stimulated for 24 hours with polydA:dT (5 μg/ml, 2 μg/ml or 1 μg/ml) or alum (50 μg/ml) alone or with LPS (100 pg/ml) (C & D). Supernatants were collected and IL-1β was detected by ELISA. Bovine PBMCs were cultured with polydA:dT (1 μg/ml) with or without LPS (100 pg/ml) for 16 hours (E). Cell lysates were harvested and pro-IL-1β was detected by western blot. PBMCs were stimulated with media or polydA:dT (1 μg/ml) for 6 hours. Cells were lysed and RNA was harvested and used for analysis by RT-PCR (F). Results are mean+/− SEM for 6 calves tested individually in triplicate. For human analysis, results are mean+/− SEM for 6 humans tested individually in triplicate The PPIA gene was used for normalization of gene expression.

PBMCs or CBMCs = test: IFNα sandwich ELISA on supernatants; type: cell-based, human; settings: CBMCs compared with PBMCs; 8 or 24 h
Experimental: Poly(I:C) (5 μg/ml) (Invivogen), Poly(dA:dT) (5 μg/ml) (Sigma-Aldrich), 2′3′ cGAMP (10 μg/ml), 5′ triphosphate double stranded RNA (5′ ppp dsRNA) (2.5 μg/ml) and HSV-60 (2 μg/ml) (all from Invivogen) were transfected into PBMCs or CBMCs using TransIT-X2 (Mirus).
Measurement of cytokines—HEK Blue TNFα/IFNα/β Assays were performed as per the manufacturer's (Invivogen) instructions using Quanti-Blue Detection Reagent. SEAP levels were determined using a spectrophotometer plate reader at 630 nm. IFNα (3425-1H-6, Mabtech) and IP-10 (DY266, R&D Systems) were detected by sandwich ELISA. IFNα ELISA used pan specific IFNα antibodies, which allows detection of IFNα subtypes 1/13, 2, 4, 5, 6, 7, 8, 10, 14, 16 and 17. BioLegend LEGENDplex™ Human Inflammation Panel (13-plex) was carried out as per manufacturer's (Biolegend) instructions to determine levels of IFNγ, IL-10, IL-12p70 and IL-23. A BD LSR Fortessa cell analyser was used to acquire samples and BioLegend LEGENDplex™ software was used for analysis.

“poly(deoxyadenylic-thymidylic) acid [Poly(dA:dT)]” was tested, and the “IL-1β secretion by bovine cells (priming not given)” value (bovine PBMCs) was “enhanced by polydA:dT; also recorded: enhanced IL-1β secretion from bovine cells; also recorded: enhances IL-1β secretion in a NLRP3 independent manner; also recorded: robust driver of IL-1β secretion and IL-18 expression in cattle”, the “IL-1β secretion by PBMCs from 1 month old calves following LPS priming” value (bovine PBMCs; 5 neonatal calves, 24 hours) was “PBMCs from all 5 neonates secreted IL-1β” and the “IL-1β secretion by PBMCs from neonatal (1 month old) calves in the absence of LPS priming” value (bovine PBMCs; 5 neonatal calves, 24 hours) was “can secrete IL-1β in response to polydA:dT without LPS priming; also recorded: secreted processed IL-1β following polydA:dT stimulation”. For the same substance, the “IL-1β secretion by bovine PBMCs primed with LPS” value (bovine PBMCs; LPS 100 pg/ml, polydA:dT 5, 2 or 1 μg/ml, 24 hours) was “secreted IL-1β when stimulated with polydA:dT at various concentrations”, the “IL-1β secretion by PBMCs from calves at 2 months of age” value (bovine PBMCs; absence or presence of LPS, 24 hours) was “processed IL-1β was present in supernatants” and the “IL-1β concentrations, presence versus absence of LPS” value (bovine PBMCs; bovine PBMCs, 24 hours) was “no significant difference in IL-1β concentrations”. For the same substance, the “IL-1β secretion by bovine PBMCs in the absence of LPS priming” value (bovine PBMCs; 24 hours, listed as PolydA:dT) was “capable of driving IL-1β secretion in the absence of priming with LPS”, the “IL-1β secretion by bovine PBMCs in the absence of LPS priming” value (bovine PBMCs; 24 hours, listed as polydA:dT) was “all calves secreted processed IL-1β” and the “IL-1β secretion by human PBMCs” value (Human PBMCs) was “only cells primed with LPS 3 h prior to transfection with polydA:dT secreted processed IL-1β; also recorded: human PBMCS did not secrete processed IL-1β”. For the same substance, the “IFNα secretion (ELISA)” value (PBMCs or CBMCs) was “equivalent or enhanced CNA sensor responses in neonates compared to adults”.
